Values of other authors in patent US5043321A, “Adrenocorticotropin release inhibiting factor” (Center for Innovative Technology, priority 1988, dated 1991).
No end group written: not given here.

Legend:
[1] = system: hemorrhage induced corticosterone secretion; conditions: Hattori et al
[2] = system: rat anterior pituitary gland; conditions: Okajima et al

Row | Substance | effect on hemorrhage induced corticosterone secretion in vivo [1] | effect on plasma ACTH ([1]; preliminary study) | most effective concentration for inhibition of ACTH secretion [2] [nM] | effect on CRF induced ACTH secretion ([2]; rat anterior pituitary gland in vitro)
1 | alpha-hANP: alpha-hANP (presumably ANF[1-28]) used by Hattori et al (SLRRSSCFGGRMDRIGAQSGLGCNSFRY; ends and bridges not checked; cysteine pairing not given here; UniProt P01160 124-151, looked up) | no effect | inhibition of plasma ACTH that was not dose dependent |  | 
2 | delta sleep inducing peptide [DSIP] |  |  | 10 | inhibits CRF induced ACTH secretion
